The assay deals with T1, PHD2 (Homo sapiens, UniProt Q9GZT9).
T1 construct: 181-426 or OGFOD1
Kind of assay: 2OG displacement from PHD2 by CPMG-edited 1H NMR. Type of assay: binding. As to conditions: 10 µM 2OG, 10 µM PHD2, 70 µM inhibitor. The method, then: total echo time of 40 ms, a relaxation delay of 2 s, with 256 scans. Water suppression was achieved by presaturation. Samples contained 30 µM apo-PHD2181-426 or OGFOD1, supplemented with 60 µM Zn(II), 30 µM of inhibitor, all in 50 mM Tris-d11, pH 7.5, 10 % D2O, […]
wLOGSY Binding Experiments: For water-ligand observed gradient spectroscopy (wLOGSY) analyses, typical experimental parameters were the following: mixing time, 1 s; relaxation delay, 2 s; number of transients, 512. Solvent excitation was achieved using a 16-ms 180° selective rectangular shape pulse with 1,000 points (Squa100.1000) set at the H2O frequency. […]
Competition Experiments by 2OG Displacement: 2OG displacement assays[12] were performed using CPMG-edited 1H spectra. […] The 2OG methylene resonance at 2.35 ppm was monitored. […]
HeLa cells were cultured in DMEM media supplemented with 10 % fetal bovine serum, 4 mM L-glutamine, 100 U/mL penicillin, and 100 µg/mL streptomycin. […] Cell extracts were analyzed by SDS-PAGE, electroblotted onto PVDF membranes (Millipore) and probed with anti-HIF-1α antibody (clone 54, BD Transduction Laboratories) at 1:1000 dilution for 1 h at room temperature. […] Target proteins were detected with SuperSignal Chemiluminescent […]
Figure S15. Single-concentration qualitative 2OG displacement as monitored by CPMG-edited 1H NMR spectroscopy. […]

Results on 2 molecules are retold here after PMC6471485, “Selective Inhibitors of a Human Prolyl Hydroxylase (OGFOD1) Involved in Ribosomal Decoding” (Chemistry (Weinheim an Der Bergstrasse, Germany), 2019).

T1 sequence (Q9GZT9 181-426 limits assumed): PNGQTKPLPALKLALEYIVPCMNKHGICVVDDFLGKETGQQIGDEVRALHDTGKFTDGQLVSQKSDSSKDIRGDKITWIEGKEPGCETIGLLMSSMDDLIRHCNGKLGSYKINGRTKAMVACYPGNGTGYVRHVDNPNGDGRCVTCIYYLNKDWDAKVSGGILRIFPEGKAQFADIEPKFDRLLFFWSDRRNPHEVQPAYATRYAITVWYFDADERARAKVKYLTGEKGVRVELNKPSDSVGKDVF

`Cn1c(O)c(C(=O)CCc2cccs2)c(=O)n(C)c1=O` [compound 42]: the “displacement of bound 2OG from PHD2, in words” value was “not from that of PHD2”.

`Cn1c(O)c(C(=O)CCc2ccccc2)c(=O)n(C)c1=O` [compound 26]: the “displacement of bound 2OG from PHD2, in words” value is “not from that of PHD2”.
